Measured values from US20260240879A1, “TOPICAL PALA THERAPY FOR CANCER” (priority 2023, published 2026).

Key:
[1] = In vitro diffusion test (Franz cells); assay type: in vitro ADME; settings: PALA 50 mg/g, 37° C., PBS pH 7.4
Experimental: All the formulations were prepared by accurately weighing 50 mg PALA in a 4 mL glass vial. The vial was stirred at RT until a clear solution was obtained. Exception for poloxamers P407 20% w/w and P188 at 40% w/w where the PALA solubilisation was performed by stirring the vial in an ice bath (to prevent gelling which occurred at RT).
In vitro diffusion test (Franz cells, Copley) was performed to mimicking in-vivo conditions of PALA (CMI-34-1) transfer from the formulation through the skin. The test was performed in sink conditions. 100 μL of PALA (CMI-34-1)-loaded hydrogels or bi-gel (containing 5 mg of API) were added to the donor chamber of the Franz cells. 7 mL of PBS pH 7.4 was added to the receptor chamber. The chambers were separated by a Strat-M Membrane (Transdermal Diffusion Test Model, Merck) of 25 mm diameter. The Franz cells were incubated at 37° C. in an appropriate heating block and under stirring at 450 rpm. At selected time points (15, 30, 60, 120, 180, and 1440 minutes), 100 μL of samples was withdrawn from the receptor chamber and analysed by HPLC for drug release. The same volume was replaced with fresh PBS buffer pre-heated at 37° C.

[2] = test system: chemical carcinogen-induced skin cancer; test: Chemical carcinogen (DMBA/TPA)-induced skin cancer model, C57BL/6; assay type: in vivo, C57BL/6 female mice; settings: 2% (w/v) PALA/Aquaphor, topical, 4 weeks
Description: Means±SEM, n=5-6/group. Significance determined by 2-way ANOVA

[3] = mouse, in vivo
Experimental: The topical formulations of 2% PALA/50% acetone/10% glycerol, 5% imiquimod (IMQ), 5% 5-FU (5-FU), vehicle (50% acetone/10% glycerol) control, and Aquaphor were applied (~0.05 g/mouse) daily to the dorsal skin of SKH1-Elite female mice (8 weeks of age; n=5/group) for 7 days. […] Mice were monitored daily for weight change, skin appearance, and signs of distress. […] At harvest, spleen weights and colon lengths were measured.

[4] = test system: cytokines and chemokines in treated skin; settings: mouse, in vivo
Experimental: The topical formulations of 2% PALA/50% acetone/10% glycerol, 5% imiquimod (IMQ), 5% 5-FU (5-FU), vehicle (50% acetone/10% glycerol) control, and Aquaphor were applied (~0.05 g/mouse) daily to the dorsal skin of SKH1-Elite female mice (8 weeks of age; n=5/group) for 7 days. […] Mice were monitored daily for weight change, skin appearance, and signs of distress.
Skin protein lysates were made by homogenizing frozen tissue with a pestle and scissors in RIPA buffer (50 mM Tris, pH8, 150 mM NaCl, 0.5% sodium deoxycholate, 1% NP-40, 0.1% sodium dodecyl sulfate, lx Pierce protease inhibitor cocktail (A32965, ThermoFisher)). Cytokines and chemokines were quantified from 25 μg of lysate using a custom 10-plex U-PLEX panel (K15069L-2; Meso Scale Discovery) that included: GM-CSF, KC/CXCL1, IFNα, IFNβ, IFNγ, IL-10, IL-6, IL-12p70, IL-17A, IL-17C, IL-17F, IP-10/CXCL10, MCP-1/CCL2, RANTES/CCL5, and TNFα. The MESO SECTOR S 600 plate reader (ICOAA-0; Meso Scale Discovery) was used to collect the U-Plex data and data was analyzed using MSD Discovery Workbench 4.0 software.

[5] = test system: UVB-induced NMSC (AK lesions and SCC tumors); test: UVB-induced NMSC mouse model: tumor number, area, growth phenotype and grade; settings: for total tumors at endpoint: vehicle 12.5±2.4
[6] = 2% (w/w) PALA (AP0536/29/02), daily, 4 weeks
[7] = individual tumors, PALA n = 48, vehicle 7.3%

## O=C(O)CC(NC(=O)CP(=O)(O)O)C(=O)O [PALA, N-phosphonacetyl-L-aspartate]
[1]
  PALA permeated / released after 24 hours: ~ 0.3%
[2]
  change in tumor burden: effective in reducing tumor burden
[3]
  SAA levels on day 7: no changes
  colon length / gross intestinal pathology on day 7: no changes
  skin histology on day 7: no changes
  skin irritation apparent (day): no skin irritation
  spleen weight on day 7: no changes
[4]
  GM-CSF, Mean (SEM): 1.0 (0.1)
  IL-6, Mean (SEM): 38.8 (8.1)
  IL-17A, Mean (SEM): 0.5 (0.09)
  IL-17C, Mean (SEM): 0.6 (0.1)
  KC, Mean (SEM): 31.1 (2.8)
  RANTES, Mean (SEM): 46.4 (9.6)
  expression of inflammatory cytokine/chemokine panel in treated skin (in words): no changes
[5]; 1% PALA in 50% acetone/10% glycerol, daily topical, 10 weeks
  total tumors at endpoint: 11.7±3.8
[5]; 1% PALA, daily topical, 10 weeks, vehicle 286.4%±62.6
  average tumor burden, % of original size at endpoint: 275.0%±84.7
[5]; 1%, 2%, 5% PALA in Aquaphor 10 weeks, 4% (w/w) PALA 4 weeks
  shape of dose-response, average number of tumors per mouse at end of treatment: U-shaped dose-response curves
[5]; [6]
  growth profile of individual tumors: lower percentage of continually growing tumors
  mean tumor surface area per tumor (average tumor size): significantly smaller average tumor size than either vehicle or 5% IMQ treated mice
[5]; 2% (w/w) PALA (AP0536/29/02), daily, 4 weeks, vs vehicle or 5% IMQ
  endpoint tumor grade: fewer squamous cell carcinoma (SCC) and SCC in situ tumors
[5]; 2% PALA in 50% acetone/10% glycerol, daily topical, 10 weeks
  total tumors at endpoint: 3.83±0.6
[5]; 2% PALA or 5% IMQ, daily, 4 weeks
  tumor levels of interleukin-1β: elevated
[5]; 2% PALA, daily topical, 10 weeks, vehicle 4.4, p=0.003
  mean tumor cross-sectional area, endpoint value: 2.4 mm^2
[5]; 2% PALA, daily topical, 10 weeks, vehicle 197.1, p<0.0001
  mean surface tumor area, endpoint value: 30.3 mm^2
[5]; 2% PALA, daily topical, 10 weeks, vehicle 286.4%±62.6, 252.3%±34.3
  average tumor burden, % of original size at endpoint: 99.2%±20.5
[5]; 2% PALA, daily, 4 weeks, compared with 5% IMQ
  tumor levels of interferon-al: elevated only in 2% PALA treated mice
[5]; 5% PALA in 50% acetone/10% glycerol, daily topical, 10 weeks
  total tumors at endpoint: 6.20±1.8
[5]; 5% PALA, daily topical, 10 weeks, vehicle 286.4%±62.6
  average tumor burden, % of original size at endpoint: 91.6%±13.4
[5]; 10 weeks of daily topical treatment
  concentrations demonstrating anti-tumor activity: ≥ 2%
[5]; PALA treated tumors, 10 weeks
  tumors shrinking after an initial period of growth or continually reducing in size: 97.9%
[5]; PALA-treated mice, vehicle 31%, p<0.001
  proportion of AK/SCC in situ and benign lesions: 62%
[5]; PALA-treated mice, vehicle 69%, p<0.0001
  prevalence of well differentiated SCC and poorly differentiated SCC: 38%
[5]; excised tumors, 2% PALA daily 10 weeks, vehicle 25
  Total Tumor Number: Poorly Differentiated SCC: 6
[5]; excised tumors, vehicle 0
  Total Tumor Number: Benign/ Hyperplastic: 8
[5]; excised tumors, vehicle 28
  Total Tumor Number: AK/SCC in situ: 23
[5]; excised tumors, vehicle 37
  Total Tumor Number: Well Differentiated SCC: 12
[5]; [7]
  Tumor Growth Outcome: Same, %: 0 (0%)
  Tumor Growth Outcome: Smaller, %: 4.1%
  Tumor Growth Phenotype: No Change, %: 0 (0%)
[5]; individual tumors, PALA n = 48, vehicle 17.0%
  Tumor Growth Phenotype: Continual Shrinkage, %: 29.1%
[5]; individual tumors, PALA n = 48, vehicle 26.8%
  Tumor Growth Outcome: Resolved, %: 83.3%
[5]; individual tumors, PALA n = 48, vehicle 29.2%
  Tumor Growth Phenotype: Grow then Shrink, %: 68.7%
[5]; individual tumors, PALA n = 48, vehicle 46.3%
  Tumor Growth Phenotype: Continual Growth, %: 2.0%
[5]; individual tumors, PALA n = 48, vehicle 58.5%
  Tumor Growth Outcome: Larger, %: 12.5%
[5]; reformulated 2% (w/v) PALA (AP0536/29/02), daily, 6 weeks
  tumor burden and total tumor area: effective in reducing tumor burden and total tumor area
[5]; vehicle 0%
  Tumor Prevalence: Benign/ Hyperplastic: 13%
[5]; vehicle 0 (0)
  Tumor Area: Benign/ Hyperplastic, mean (SEM): 1.4 (0.3)
  Tumors / Mouse: Benign/ Hyperplastic, mean (SEM): 0.5 (0.6)
[5]; vehicle 1.5 (0.7)
  Tumor Cross Sectional Area: AK/SCC in situ, mean (SEM): 1.1 (1.0) mm^2
[5]; vehicle 2.0 (1.6)
  Tumors / Mouse: Poorly Differentiated SCC, mean (SEM): 0.5 (0.9)
[5]; vehicle 2.3 (2.1)
  Tumors / Mouse: AK/SCC in situ, mean (SEM): 1.9 (1.2)
[5]; vehicle 3.0 (1.8)
  Tumors / Mouse: Well Differentiated SCC, mean (SEM): 1.0 (1.1)
[5]; vehicle 3.4 (6.6)
  Tumor Area: AK/SCC in situ, mean (SEM): 2.3 (2.0)
[5]; vehicle 3.7 (2.0)
  Tumor Cross Sectional Area: Well Differentiated SCC, mean (SEM): 3.1 (2.2) mm^2
[5]; vehicle 9.2 (5.8)
  Tumor Cross Sectional Area: Poorly Differentiated SCC, mean (SEM): 9.8 (6.4) mm^2
[5]; vehicle 10.7 (18.0)
  Tumor Area: Well Differentiated SCC, mean (SEM): 7.5 (4.5)
[5]; vehicle 28%
  Tumor Prevalence: Poorly Differentiated SCC: 13%
[5]; vehicle 31%
  Tumor Prevalence: AK/SCC in situ: 49%
[5]; vehicle 41%
  Tumor Prevalence: Well Differentiated SCC: 25%
[5]; vehicle 59.5 (77.3)
  Tumor Area: Poorly Differentiated SCC, mean (SEM): 62.6 (70.0)
[5]; vehicle n/a
  Tumor Cross Sectional Area: Benign/ Hyperplastic, mean (SEM): 1.7 (2.0) mm^2
